Marks after values point to notes of the source that are not given here.
How the values were obtained:
[1] = Cell surface hydrophobicity (bacterial adherence to hydrocarbon, xylene); assay type: physicochemical; conditions: at 60 min
Experimental: Based on the ability of bacteria to adhere to hydrocarbons, the cell surface hydrophobicity of strain AKK PROBIO was measured. A test of bacterial adherence to hydrocarbon (BATH) was conducted using xylene, and some modifications were made. Specifically, the strains were cultured overnight in a BHI medium at 37° C. Cells were collected by centrifugation (4° C.; 8000 rpm; 10 min), washed twice, and resuspended in a phosphate buffer (PBS, pH 7), and absorbance (OD600 nm) was adjusted to 0.5 to normalize bacteria number. Then, an equal volume of xylene was added and vortexed for 5 min to fully mix a two-phase system. After the incubation at room temperature for 15, 30, and 60 min, an aqueous phase was carefully removed, and its absorbance at 600 nm was measured using a spectrophotometer. The affinity (hydrophobicity) for the hydrocarbons was calculated using the following formula:
[formula] • where P0 and P1 are absorbance values before and after extraction with the hydrocarbons, respectively.

[2] = test system: AOM/DSS-induced colorectal carcinoma mice; assay: AOM/DSS-induced colorectal carcinoma mice; assay type: in vivo, C57BL/6 mice; conditions: for colorectum weight/length (ratio): model group 4.34±0.35, normal 2.81±0.34
Experimental: 6-week-old SPF male C57BL/6 mice, purchased from the Chongqing Lepitt Biotechnology Co., Ltd. The mice were raised in a standardized laboratory with room temperature of 25° C.±2° C., relative humidity of 50%±5%, and 12 h of light/12 h of darkness. […] In experiments, mice were given free feeding and water. On the first day of experimental molding, the mice in the model group, the aspirin group, and the AKKP group were injected intraperitoneally with AOM at a dosage of 10 mg/kg, and were fed with 2.5% DSS aqueous solution at weeks 2, 5, and 8. The mice in the normal group and model group were intragastrically administrated with sterile saline; the mice in the aspirin group were intragastrically administrated with an aspirin solution at 67 mg/kg, and the mice in the AKKPL group and the AKKPH group were intragastrically administrated at dosages of 1×10^8 CFU/kg and 1×10^9 CFU/kg, respectively, for 10 consecutive weeks. In the experiments, diet, activity, vigor and hair conditions, and fecal properties of the mice in each group were observed. Each mouse was weighed per week and the body weights were recorded. After the experiments, blood was collected from eyeballs and the mice were sacrificed by removing their vertebrae. The mice were dissected to take out large intestine tissue, spleen tissue, liver tissue, and the kidney tissue for later testing.
After the mice were dissected, the large intestine tissue, the spleen tissue, the liver tissue, and the kidney tissue were taken out and weighed. An organ Index was calculated using a formula, while the colorectum length of the mouse was measured and the colorectal tumorigenesis number of the mouse was recorded. Organ index=organ weight (mg)/mouse body weight (g).
After being fixed in a tissue fixative for 24 h, the rectum of the mouse was transferred into 95% ethanol for dehydration, and then the dehydrated rectum was placed in xylene to replace alcohol in the tissue to make the rectum tissue transparent. Then, the treated rectum was embedded with paraffin. The embedded rectum was sectioned by a microtome, and then a tissue section was stained with H&E and fixed, obtaining a pathologic tissue section, with a thickness of 2 to 3 μm, of the rectum of the mouse, and the pathologic tissue section was observed under the upright microscope.
Whole blood was collected from the eyeballs, and centrifuged at 4000 r/min and 4° C. for 10 min to separate supernatant serum. According to the instruction of the ELISA kit, the levels of IL-1β, IL-6, IFN-γ, iNOS and NF-κB in the serum of the mouse were determined.
About 50 mg colon tissue was taken and cleaned with saline, and the cleaned colon tissue was placed in a homogenization tube containing 6 zirconia beads, and 500 μL TRIzol™ reagent was added to extract RNA in the tissue. The purity and concentration of RNA were determined using the micro-spectrophotometer. […] Then, after cDNA was generated by reverse transcription, a reaction system containing 1 μL cDNA was prepared. Other reagents include 10 μL qPCR SYBR Green Master Mix, […] sterile distilled water, 1 μL forward primer and 1 μL reverse primer. qRT-PCR amplification reaction conditions: 95° C., 10 s, 60° C., 30 s, 40 cycles; 95° C., 15 s, 60° C., 60 s, 95° C., 15 s. Taking Eef2 as an internal reference gene, the mRNA relative expression of each target gene was calculated according to formula 2^−ΔΔCt.

mice = assay: Subchronic toxicity experiment, 90 d; assay type: in vivo
Experimental: Animals were randomly divided into four groups: group 1 (half male and half female) (saline, 0 CFU/kg. bw/d), group 2 (half male and half female) (9.2×10^8 CFU/kg. bw/d), group 3 (half female and half male) ([…]), and group 4 (half male and half female) (92×10^8 CFU/kg. bw/d). A new bacterial suspension was prepared per day. The bacterial suspension was intragastrically administrated orally for 90 consecutive days at a dosage volume of 5 mL/kg. bw. Clinical signs were recorded per day, and detailed clinical observation was conducted once a week. The body weight, the food consumption, and the water intake were recorded once a week. At the end of the experimental period, blood samples were collected for hematological and serum biochemical analysis (refer to Embodiment 4). An autopsy was conducted on all animals, and the weight of main organs was recorded. A histopathological examination was performed on the major organs and tissue of all the animals in each group (refer to Embodiment 4). […]
Determination of blood glucose: In a certain time interval after administration, at 0, 15, 30, 60, 90 and 120 min, the tail venous blood of the mouse was taken, and the blood glucose level of the mouse was measured using a blood glucose meter measurement method. […]

[3] = test system: APP/PS1 double transgenic mice; assay: Alzheimer's disease in APP/PS1 double transgenic mice; assay type: in vivo; conditions: 1*10^9 CFU/mouse/d 30 d
[4] = qRT-PCR, aspirin 67 mg/kg or AKKPH 1×10^9 CFU/kg, vs model group, P<0.05
[5] = qRT-PCR, vs model group, P<0.05

Akkermansia muciniphila [AKK PROBIO]
hydrophobicity [1]: ≥ 30%
colorectum weight/length (ratio) ([2]; AKKPH 1×10^9 CFU/kg intragastric 10 weeks): 2.97±0.18
colorectum weight/length (ratio) ([2]; AKKPL 1×10^8 CFU/kg intragastric 10 weeks): 3.18±0.31
body weight loss ([2]; AOM/DSS mice, intragastric 10 weeks, aspirin 67 mg/kg, AKKP 1×10^8 and 1×10^9 CFU/kg): alleviate the body weight loss in the mice to a certain extent
content of IL-6 in serum ([2]; ELISA, vs model group): reduced
content of IFN-γ in serum ([2]; ELISA, vs model group, P<0.05): reduced
content of IL-1β in serum ([2]; ELISA, vs model group, P<0.05): lower than that in the model group
content of NF-κB in serum ([2]; ELISA, vs model group, P<0.05): reduced
content of iNOS in serum ([2]; ELISA, vs model group, P<0.05): reduced
pathological morphology of rectum tissue (H&E) ([2]; aspirin, AKKPL and AKKPH groups): no obvious erosion found in the rectal mucosa
kidney index / renal tissue ([2]; between the five groups, P>0.05): no significant difference
mRNA relative expression of IκBβ in colon tissue [2, 4]: significantly reduced
mRNA relative expression of p50 in colon tissue [2, 4]: significantly reduced
mRNA relative expression of Bid in colon tissue [2, 5]: significantly increased
mRNA relative expression of Bim in colon tissue [2, 5]: significantly increased
mRNA relative expression of caspase-9 in colon tissue [2, 5]: significantly increased
mRNA relative expression of p52 in colon tissue [2, 5]: significantly reduced
mRNA relative expression of p65 in colon tissue [2, 5]: significantly reduced
colorectal tumorigenesis number ([2]; vs model group, P<0.05): significantly smaller
liver weight (liver index) ([2]; vs model group, P<0.05): reduced
spleen weight (spleen index) ([2]; vs model group, P<0.05): reduced
colorectum length ([2]; vs model group, P<0.05, aspirin 67 mg/kg, AKKP 1×10^8 and 1×10^9 CFU/kg, 10 weeks): relatively long
pathological injury to the livers and kidneys (mice; 90 d): no significant pathological injury
weight of major organs (mice; 90 d, heart, liver, spleen, kidneys, thymus, brain, testes, lungs, pancreas, stomach, intestine, vs control group): substantially no significant difference
changes of blood glucose per week (mice; 90 d, medium-dosage group (27.6×10^8) vs control saline group): significant difference
changes of blood glucose per week (mice; 90 d, the other groups (low, high dosage) vs control group): no significant difference
level of the bile acid both in serum and liver (mice; 90 d, the other groups vs control group): no significant difference
activity of glutamic oxalacetic transaminase in both serum and liver (mice; 90 d, vs control group): no significant difference
activity of glutamic pyruvate transaminase in both serum and liver (mice; 90 d, vs control group): no significant difference
blood glucose regulation ability (glucose tolerance and insulin tolerance) (mice; 90 d, vs control group): no significant difference
concentration of blood urea nitrogen in serum (mice; 90 d, vs control group): no significant difference
content of creatinine in serum (mice; 90 d, vs control group): no significant difference
content of total protein in both serum and liver (mice; 90 d, vs control group): no significant difference
level of glucose in both serum and liver (mice; 90 d, vs control group): no significant difference
level of the cholesterol in both liver and serum (mice; 90 d, vs control group): no significant difference
level of the triglyceride in both liver and serum (mice; 90 d, vs control group): no significant difference
changes of body weight per week (mice; 90 d, vs control saline group): no significant difference
changes of food intake per week (mice; 90 d, vs control saline group): no significant difference
various blood indicators (mice; 90 d, vs control saline group): no significant difference
death (mice; intragastric 90 consecutive days, high, medium, low dosage (92×10^8, 27.6×10^8, 9.2×10^8 CFU/kg. bw/d)): no death occurs
Serum IL-4 ([3]; APP group 35.00, WT 106.52): 70.42 ± 3.40^c
Serum CCL2 ([3]; APP group 80.13, WT 59.07): 67.74 ± 1.51^b
Serum CXCL1 ([3]; APP group 168.91, WT 14.87): 56.40 ± 2.88^b
Serum IL-10 ([3]; APP group 565.36, WT 2779.61): 2133.04 ± 18947^b

Reference: patent US12606795B2 (Thankcome Biological Science and Technology (SuZhou) Co., …, priority 2023, dated 2026)
